Data from patent publication US6525059B1, “Substituted pyrazoles as p38 kinase inhibitors” (G. D. Searle & Company, priority 1998, dated 2003).
Where two headings read alike, the source gives them in different places.

Columns and labels:
human p38 kinase alpha = biological target: T1, human p38 kinase alpha (Homo sapiens, UniProt Q16539); assay: p38 kinase in vitro assay, phosphorylation of biotinylated PHAS-I with gamma 32P-ATP; type: biochemical; settings: for inhibition at 10 µM / inhibition at 1 µM: read-out: P38 alpha kinase % inhib @ conc.
T1 construct: The coding region of the human p38a cDNA was obtained by PCR-amplification from RNA isolated from the human monocyte cell line THP.1; GST (N); made in house; host or cells: E. coli DH10B
Procedure, shortened: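 MKK6-activated human p38α phosphorylates biotinylated PHAS-I with γ-32P-ATP in 25 mM HEPES pH 7.5, 10 mM Mg acetate, 50 μM unlabeled ATP, 1% DMSO, 30 °C for 1 h or overnight. Compounds at 100–0.001 μM (10-fold steps, triplicate); substrate captured on streptavidin filter plates and counted by scintillation.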

TNF-α = assay: LPS stimulation of TNF production by U937 cells; type: cell-based, human; settings: for inhibition at 1 µM: U-937, @ 1.0 uM, read-out: U937 Cell % inhib @ conc.
Experimental: Fifty million cells in 100 ml media were induced to terminal monocytic differentiation by 24 hour incubation with 20 ng/ml phorbol 12-myristate 13-acetate (Sigma). The cells were washed by centrifugation (200×g for 5 min) and resuspended in 100 ml fresh medium. After 24-48 hours, the cells were harvested, centrifuged, and resuspended in culture medium at 2 million cells/ml.
Compounds were prepared as 10 mM stock solutions in DMSO and diluted in culture medium to yield a final DMSO concentration of 0.1% in the cell assay. LPS (E coli, 100 ng/ml final concentration) was then added at a volume of 0.02 ml. After 4 hour incubation at 37° C., the amount of TNF-α released in the culture medium was quantitated by ELISA. Inhibitory potency is expressed as IC50 (μM).
In vitro whole cell assay for measuring the ability of the compounds to inhibit TNF production in human U937 cells stimulated with LPS are shown in the column identified as: […]

[1] = read-out: P38 alpha kinase IC50
[2] = Homo sapiens, U-937, TNF production, LPS-stimulated human U937 cells, read-out: U937 Cell IC50
[3] = p38α in vitro, PHAS-I assay procedure, read-out: p38^1 IC50
[4] = Homo sapiens, U-937, LPS-stimulated U937 cells, read-out: U937 IC50

T1 sequence (Q16539 whole entry): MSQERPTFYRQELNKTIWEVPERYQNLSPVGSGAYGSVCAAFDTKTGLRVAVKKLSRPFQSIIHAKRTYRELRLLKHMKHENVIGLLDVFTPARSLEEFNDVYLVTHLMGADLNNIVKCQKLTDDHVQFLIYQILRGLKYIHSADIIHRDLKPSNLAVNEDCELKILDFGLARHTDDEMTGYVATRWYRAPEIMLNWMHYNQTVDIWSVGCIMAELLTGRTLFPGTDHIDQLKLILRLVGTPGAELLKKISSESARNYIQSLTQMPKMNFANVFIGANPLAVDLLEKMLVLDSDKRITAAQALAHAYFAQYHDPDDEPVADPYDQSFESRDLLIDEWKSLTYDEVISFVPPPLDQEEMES

Compound | IC50 (human p38 kinase alpha; [1]) [nM] | inhibition at 1 µM (TNF-α; Homo sapiens) [%] | further results
C[C@@H](NS(=O)(=O)c1c(Cl)cccc1Cl)c1[nH]nc(-c2ccc(F)cc2)c1-c1ccncc1 [Example B-0453] | 470 | 75 | 
C[C@@H](NS(=O)(=O)c1ccc(-c2ccccn2)s1)c1[nH]nc(-c2ccc(F)cc2)c1-c1ccncc1 [Example B-0483] | 570 | 68 | 
O=C(NCc1[nH]nc(-c2ccc(F)cc2)c1-c1ccncc1)Nc1ccc(OC(F)(F)F)cc1 [Example B-0172] |  | 11 | inhibition at 10 µM (human p38 kinase alpha): 16%
C[C@@H](NS(=O)(=O)c1ccccc1C(F)(F)F)c1[nH]nc(-c2ccc(F)cc2)c1-c1ccncc1 [Example B-0458] | 33 | 70 | 
C[C@@H](NS(=O)(=O)c1ccc(F)cc1F)c1[nH]nc(-c2ccc(F)cc2)c1-c1ccncc1 [Example B-0390] | 89 | 55 | 
O=C(NCc1[nH]nc(-c2ccc(F)cc2)c1-c1ccncc1)C1CC1 [Example B-0089] | 40 |  | IC50 (TNF-α; [2]): 3330 nM
O=C(Cc1cccc2ccccc12)NCc1[nH]nc(-c2ccc(F)cc2)c1-c1ccncc1 [Example B-0171] |  | 21 | inhibition at 10 µM (human p38 kinase alpha): 61%
C[C@@H](NC(=O)c1c(F)cccc1F)c1[nH]nc(-c2ccc(F)cc2)c1-c1ccncc1 [Example B-0523] | 190 | 83 | 
OCCCNc1cc(-c2c[nH]nc2-c2ccc(F)cc2)ccn1 [Example A-282, 3-[[4-[3-(4-fluorophenyl)-1H-pyrazol-4-yl]-2-pyridinyl]amino]-1-propanol] |  |  | IC50 (human p38 kinase alpha; [3]): 45 nM; IC50 (TNF-α; [4]): 97.3 nM
C[C@@H](NC(=O)c1c(F)ccc(F)c1F)c1[nH]nc(-c2ccc(F)cc2)c1-c1ccncc1 [Example B-0503] | 160 | 73 | 
O=S(=O)(NCc1[nH]nc(-c2ccc(F)cc2)c1-c1ccncc1)c1ccc(F)cc1F [Example B-0134] |  |  | inhibition at 1 µM (human p38 kinase alpha): 60%; IC50 (TNF-α; [2]): 2170 nM
C[C@@H](NC(=O)NCc1ccccc1)c1[nH]nc(-c2ccc(F)cc2)c1-c1ccncc1 [Example B-0403] | 1770 |  | IC50 (TNF-α; [2]): 2420 nM
O=C(NCc1[nH]nc(-c2ccc(F)cc2)c1-c1ccncc1)c1cccc(Br)c1 [Example B-0073] |  | 24 | inhibition at 1 µM (human p38 kinase alpha): 91%
C[C@@H](NC(=O)c1c(Cl)cccc1Cl)c1[nH]nc(-c2ccc(F)cc2)c1-c1ccncc1 [Example B-0519] | 43 | 87 | 
Cc1ccccc1C(=O)N[C@H](C)c1[nH]nc(-c2ccc(F)cc2)c1-c1ccncc1 [Example B-0492] | 69 | 42 | 
O=S(=O)(NCc1[nH]nc(-c2ccc(F)cc2)c1-c1ccncc1)c1ccc(-c2ccon2)s1 [Example B-0262] | 410 | 89 | 
CC(C)c1cc(C(C)C)c(C(=O)NCc2[nH]nc(-c3ccc(F)cc3)c2-c2ccncc2)c(C(C)C)c1 [Example B-0272] | 1810 | 48 | 
CCCCCCCCS(=O)(=O)NCc1[nH]nc(-c2ccc(F)cc2)c1-c1ccncc1 [Example B-0142] |  | 12 | inhibition at 1 µM (human p38 kinase alpha): 86%
CC(C)NC(=O)NCc1[nH]nc(-c2ccc(F)cc2)c1-c1ccncc1 [Example B-0149] | 1150 |  | IC50 (TNF-α; [2]): 10000 nM
O=S(=O)(NCc1[nH]nc(-c2ccc(F)cc2)c1-c1ccncc1)c1cc(S(=O)(=O)c2ccccc2)cs1 [Example B-0259] | 350 | 58 | 
O=C(NCCc1ccccc1)NCc1[nH]nc(-c2ccc(F)cc2)c1-c1ccncc1 [Example B-0157] |  | 9 | inhibition at 10 µM (human p38 kinase alpha): 48%
COc1ccc(CC(=O)N[C@H](C)c2[nH]nc(-c3ccc(F)cc3)c2-c2ccncc2)cc1 [Example B-0372] | 350 | 29 | 

Compound | IC50 (human p38 kinase alpha; [1]) [nM] | inhibition at 1 µM (TNF-α; Homo sapiens) [%] | further results
C[C@@H](NC(N)=O)c1[nH]nc(-c2ccc(F)cc2)c1-c1ccncc1 [Example B-0402] | 140 |  | IC50 (TNF-α; [2]): 1510 nM
CCNC(=O)NCc1[nH]nc(-c2ccc(F)cc2)c1-c1ccncc1 [Example B-0212] | 120 | 28 | 
CC(C)(C)C(=O)NC(Cc1ccccc1)c1[nH]nc(-c2ccc(F)cc2)c1-c1ccncc1 (stereo not shown) [Example B-0791] | 300 |  | IC50 (TNF-α; TNF production, LPS-stimulated human U937 cells, read-out: U937 Cell IC50): > 1000 nM
COc1cccc(CC(=O)N[C@H](C)c2[nH]nc(-c3ccc(F)cc3)c2-c2ccncc2)c1 [Example B-0373] | 450 | 18 | 
CC(C)C(=O)N[C@H](C)c1[nH]nc(-c2ccc(F)cc2)c1-c1ccncc1 [Example B-0355] | 750 | 40 | 
O=C(NCc1[nH]nc(-c2ccc(F)cc2)c1-c1ccncc1)[C@H]1CCCN1 [Example B-0196] | 2240 |  | IC50 (TNF-α; [2]): > 1000 nM
O=C(NCc1[nH]nc(-c2ccc(F)cc2)c1-c1ccncc1)c1cccc(Cl)c1 [Example B-0300] | 780 | 32 | 
Cc1ccc(F)cc1S(=O)(=O)NCc1[nH]nc(-c2ccc(F)cc2)c1-c1ccncc1 [Example B-0232] | 48 | 24 | 
Cc1c(C)c(S(=O)(=O)N[C@H](C)c2[nH]nc(-c3ccc(F)cc3)c2-c2ccncc2)c(C)c2c1OC(C)(C)CC2 [Example B-0482] | 970 | 68 | 
COc1cc(OC)c(NC(=O)NCc2[nH]nc(-c3ccc(F)cc3)c2-c2ccncc2)cc1Cl [Example B-0187] |  | 14 | inhibition at 10 µM (human p38 kinase alpha): 4%
O=C(NCc1[nH]nc(-c2ccc(F)cc2)c1-c1ccncc1)C1CCC1 [Example B-0066] |  | 28 | inhibition at 1 µM (human p38 kinase alpha): 94%
O=S(=O)(NCc1[nH]nc(-c2ccc(F)cc2)c1-c1ccncc1)c1ccc(F)c(Cl)c1 [Example B-0242] | < 100 | 78 | 
C[C@@H](NC(=O)c1cc(F)ccc1F)c1[nH]nc(-c2ccc(F)cc2)c1-c1ccncc1 [Example B-0520] | 400 | 67 | 
O=C(NCc1[nH]nc(-c2ccc(F)cc2)c1-c1ccncc1)c1ccc(F)c(F)c1 [Example B-0276] | 1250 | 26 | 
Cc1ccccc1S(=O)(=O)N[C@H](C)c1[nH]nc(-c2ccc(F)cc2)c1-c1ccncc1 [Example B-0469] | 56 | 92 | 
CC(NC(=O)c1cc(F)cc(C(F)(F)F)c1)c1[nH]nc(-c2ccc(F)cc2)c1-c1ccncc1 (stereo not shown) [Example B-0690] | 27100 |  | U937 Cell % inhib @ conc. (TNF-α; @ 1.0 uM): 36.0% @ 1.0 uM
CCN(CC)CCn1cc(-c2ccncc2)c(-c2ccc(F)cc2)n1 [Example A-284, N,N-diethyl-3-(4-fluorophenyl)-4-(4-pyridinyl)-1H-pyrazole-1-ethanamine] |  |  | IC50 (human p38 kinase alpha; [3]): 980 nM; IC50 (TNF-α; [4]): 509 nM
C[C@@H](NS(=O)(=O)c1ccc(F)cc1Cl)c1[nH]nc(-c2ccc(F)cc2)c1-c1ccncc1 [Example B-0449] | 830 | 81 | 
O=C(NCc1[nH]nc(-c2ccc(F)cc2)c1-c1ccncc1)c1ccc(Cl)cc1Cl [Example B-0291] | 1330 | 20 | 
COc1ccccc1C(=O)NCc1[nH]nc(-c2ccc(F)cc2)c1-c1ccncc1 [Example B-0011] | 30 |  | IC50 (TNF-α; [2]): 4470 nM
C[C@@H](NC(=O)C1CCC1)c1[nH]nc(-c2ccc(F)cc2)c1-c1ccncc1 [Example B-0360] | 1600 | 19 | 
C#CCn1ncc(-c2ccncc2)c1-c1ccc(F)cc1 [Example A-295, 4-[5-(4-fluorophenyl)-1-(2-propynyl)-1H-pyrazol-4-yl]pyridine] |  |  | IC50 (human p38 kinase alpha; [3]): 7660 nM; IC50 (TNF-α; [4]): > 10000 nM
